Drawing on ChEMBL document CHEMBL2434968, “The thermodynamic basis for the use of lipophilic efficiency (LipE) in enthalpic optimizations” (Bioorg Med Chem Lett, 2013), this text covers Kd for four molecules.

One assay addresses Protease (Human immunodeficiency virus 1, UniProt Q9YQ12). The assay is described as follows: Binding affinity to HIV1 protease by ITC analysis. (In general: In ITC the heat of successive injections is recorded.)
The target of a further assay is Cathepsin D (Homo sapiens, UniProt P07339). Briefly: Inhibition of cathepsin D (unknown origin).
Assay [1] in a line: Inhibition of pepsin (unknown origin). More on the design: species or system Homo sapiens.

Chain of Protease (Q9YQ12 whole entry): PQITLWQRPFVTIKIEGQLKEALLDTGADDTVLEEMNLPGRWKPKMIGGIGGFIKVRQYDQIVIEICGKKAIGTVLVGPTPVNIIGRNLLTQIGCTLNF
Chain of Cathepsin D (P07339 65-162 limits assumed): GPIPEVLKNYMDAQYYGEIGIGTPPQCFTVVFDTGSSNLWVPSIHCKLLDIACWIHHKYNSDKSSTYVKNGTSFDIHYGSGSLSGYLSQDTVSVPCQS
Chain of Cathepsin D (P07339 169-412 limits assumed): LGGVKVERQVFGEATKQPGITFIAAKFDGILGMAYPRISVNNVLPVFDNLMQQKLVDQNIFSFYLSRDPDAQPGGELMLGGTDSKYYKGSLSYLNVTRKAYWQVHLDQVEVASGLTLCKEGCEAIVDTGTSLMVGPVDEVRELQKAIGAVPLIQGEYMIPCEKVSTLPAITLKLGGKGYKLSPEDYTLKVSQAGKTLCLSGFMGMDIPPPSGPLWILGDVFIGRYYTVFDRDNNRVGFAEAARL

As for `CSC[C@H](NC(=O)COc1cccc2cnccc12)C(=O)N[C@@H](Cc1ccccc1)[C@H](O)C(=O)N1CSC(C)(C)C1C(=O)N[C@H]1c2ccccc2C[C@H]1O` (stereo partly drawn), the Kd on Protease was found to be 0.013 nM.

Take `CC1(C)SCN(C(=O)[C@@H](O)[C@H](Cc2ccccc2)NC(=O)[C@H](CS(C)(=O)=O)NC(=O)COc2cccc3cnccc23)C1C(=O)N[C@H]1c2ccccc2C[C@H]1O` (stereo partly drawn): the affinity at Protease, expressed as Kd, was 0.021 nM.

In the case of `CC1(C)SCN(C(=O)[C@@H](O)[C@H](Cc2ccccc2)NC(=O)COc2ccccc2)C1C(=O)N[C@H]1c2ccccc2C[C@H]1O` (stereo partly drawn), the Kd worked out at 142 nM on Cathepsin D, 850 nM in assay [1] and 11.8 nM at Protease.

`Cc1cccc(C)c1OCC(=O)N[C@@H](Cc1ccccc1)[C@H](O)C(=O)N1CSC(C)(C)C1C(=O)N[C@H]1c2ccccc2C[C@H]1O` (stereo partly drawn): the Kd at Cathepsin D worked out at 22 nM; in assay [1], 345 nM; at Protease, 0.14 nM.

By Kd is commonly meant a measure of binding affinity in units of concentration. A high value points to lower affinity.
